Assay results reported in patent EP4644391A1, “NOVEL PHENYLQUINOLONE COMPOUND HAVING ANTIBACTERIAL AND ANTICANCER FUNCTIONS, AND PREPARATION THEREOF” (Alphamol Science Ltd (Shanghai), priority 2022, dated 2024).
≈ marks a conversion by molar mass, not a printed value. Read-outs that look alike come from different tables or passages of the source.

What was measured:
[1] = test system: A. baumannii ATCC 17978; assay: In vitro antibacterial activity assay (MIC, broth dilution); type: cell-based; conditions: Acinetobacter baumannii, ATCC17978; Table 2; 37°C, 16 hours; read-out: G- bacteria MIC A. baumannii ATCC 17978
Text: (§1) The method used to indicate the activity of the compounds in this example is to record the minimum inhibitory concentration (MIC) of the compounds against bacteria. The specific experimental method is as follows: • 1. The bacterial liquid cultured from a single colony was taken, and diluted into autoclaved CAMHB broth in a ratio of 1:1000, and mixed well. • 2. The prepared drug solution was filtered through a sterile 0.22µm syringe filter and placed in a sterile EP tube for later use. • 3. A 96-well plate was taken, and 20µL of drug solution (400µg/mL) was added to each well in the first column of the 96-well plate. Then, 180µL of diluted bacterial liquid was added and mixed well (Perform 3 replicate rows for each drug). The same process was performed for the hydrochloride drug. • 4. 100 µL of diluted bacterial liquid was added to each well in the remaining 11 columns of the 96-well plate. Drugs are the same as above. • 5. Serial dilution: 100µL of liquid was taken from the first column to the second column, mixed well, then 100µL of liquid was taken from the second column to the third column, mixed well, and so on, sequentially diluting down to the last column (column 12). After mixing column 12 well, 100µL of liquid thereof was discarded. The drug concentration in each well was decreased by two-fold serially (the concentration in the first well is 40µg/mL). • 6. Blank CAMHB broth without added bacteria liquid was added to 3 blank wells in the 96-well plate, as negative control. • 7. The diluted bacterial liquid was added to 3 blank wells in the 96-well plate, as positive control. • 8. Incubated at 37°C for 16 hours. • 9. Results reading: the minimum inhibitory concentration is the minimum drug concentration at which no bacterial growth is visible to the naked eye and without turbidity.

[2] = test system: E. coli ATCC 25922; assay: as above; type: cell-based; conditions: Escherichia coli, ATCC25922
Text: as §1

[3] = test system: E. feacium ATCC 700221; assay: as above; type: cell-based; conditions: Table 1; 37°C, 16 hours; read-out: G+ bacteria MIC E. feacium ATCC 700221
Text: as §1

[4] = test system: P.aeruginosa ATCC 27853; assay: as above; type: cell-based; conditions: Pseudomonas aeruginosa, ATCC27853; Table 2; 37°C, 16 hours; read-out: G- bacteria MIC P.aeruginosa ATCC 27853
Text: as §1

[5] = test system: S. aureus ATCC 43300; assay: as above; type: cell-based; conditions: Staphylococcus aureus, ATCC43300
Text: as §1

[6] = test system: Staphylococcus aureus ATCC43300; assay: Systemic blood infection animal model; type: in vivo, mice; conditions: for number of colonies of organs (liver and kidney), antibacterial effect: 4 mg/kg, oral gavage 3 times a day for 7 days (positive drug given as ciprofloxacin hydrochloride)
Experimental: Mice were administered by oral gavage with the drug solvent for the model group and the blank group. • (5) 8 h after the last administration, mice were euthanized by cervical dislocation, disinfected with 75% alcohol, and then necropsied under sterile conditions. The kidneys and livers were harvested, observed and photographed, and the weight was recorded. • (6) The kidneys and livers were placed in a sterile glass grinder and sterile PBS in a volume ten times the weight of the organs was added and grinded. The grinding solutions were taken out, 10-fold serially diluted, smeared to a TSA solid culture medium, and incubated at 37°C for 16 hours, then the colonies were counted. The number of colonies of the organs was calculated to evaluate the therapeutic effect.

[7] = test system: methicillin-resistant Staphylococcus aureus; type: in vivo, Kunming mice; conditions: for reduction of necrosis area compared with the control group: 4 consecutive days, measured on 5th day
Experimental: Kunming mice (20±2 g) were anesthetized with chloral hydrate and shaved, and then 50 µL of 4×10^7 CFU/mL of methicillin-resistant Staphylococcus aureus was subcutaneously injected. One day later, 100 µL of 0.02, 2 and 200 mg/kg of Example 29 were subcutaneously injected respectively, and 100 µL of normal saline was injected for the control group. The drug was administered for consecutive 4 days, and mice were euthanized on the 5th day, and the area of abscess was measured.

[8] = Table 2, 37°C, 16 hours, read-out: G- bacteria MIC E. coli ATCC 25922
[9] = Table 1, 37°C, 16 hours, read-out: G+ bacteria MIC S. aureus ATCC 43300

| Structure (SMILES) | MIC [1] | MIC [2, 8] | MIC [3] | MIC [4] | MIC [5, 9] | number of colonies of organs (liver and kidney), antibacterial effect [6] | MIC ([2]; Table 3, read-out: E. coli ATCC 25922 MIC) | MIC ([5]; Table 3, read-out: S. aureus ATCC 43300 MIC) | reduction of necrosis area compared with the control group ([7]; 0.02 mg/kg subcutaneous) | reduction of necrosis area compared with the control group ([7]; 2 mg/kg subcutaneous) | antibacterial effect ([7]; concentrations 4 µg/mL and 400 µg/mL (corresponding to 0.02 mg/kg, 200 mg/kg)) | observation at the subcutaneous administration site ([7]; mouse, in vivo, sc, 200 mg/kg) | number of colonies of organs (liver and kidney) versus control group ([6]; 1 mg/kg, oral gavage 3 times a day for 7 days) | antibacterial effect in the liver and kidney (number of colonies) compared with ciprofloxacin ([6]; oral gavage 3 times a day for 7 days, Figure 4) |
| --- | --- | --- | --- | --- | --- | --- | --- | --- | --- | --- | --- | --- | --- | --- |
| O=C(O)c1cn(C2CC2)c2cc(N3CCNCC3)c(F)cc2c1=O [Ciprofloxacin] | 0.1 to 1 µg/mL (≈ 0.302 to 3.02 µM) | 0.1 to 1 µg/mL (≈ 0.302 to 3.02 µM) | > 8 µg/mL | 0.1 to 1 µg/mL (≈ 0.302 to 3.02 µM) | 0.1 to 1 µg/mL (≈ 0.302 to 3.02 µM) | not apparent | – | – | – | – | – | – | – | – |
| O=C(O)c1cn(C2CC2)c2c(Cl)c(-c3ccc(S(=O)(=O)NCCCC(F)(F)F)nc3)c(F)cc2c1=O [Example 29, 8-chloro-1-cyclopropyl-6-fluoro-4-oxo-7-(6-(N-(4,4,4-trifluorobutyl)sulfamoyl)pyridin-3-yl)-1,4-dihydroquinolin-3-carboxylic acid] | ≤ 0.1 µg/mL | ≤ 0.1 µg/mL | 1 to 8 µg/mL (≈ 1.83 to 14.6 µM) | ≤ 0.1 µg/mL | ≤ 0.1 µg/mL | huge difference | ≤ 1 µg/mL | ≤ 1 µg/mL | 78.09% | 81.21% | good antibacterial effect | certain bleeding symptom in body surface appeared | significant statistical difference from the control group | very significant antibacterial effect |
